# From patent US10828316B2, “Method of treating bacterial infections” (priority 2016, dated 2020)
# Legend:
# S. aureus strain no 13 = test: MIC; settings: Staphylococcus aureus, NO13, read-out: MIC of trimethoprim only
# S. marescens EN0454 = test: MIC; format: cell-based, Serratia marescens; settings: in FdUrd+trimethoprim+uridine combination
# M. luteus EN0455 = test: MIC; format: cell-based, Micrococcus luteus; settings: in FdUrd+trimethoprim+uridine combination
# P. mirabilis EN0457 = test: MIC; format: cell-based, Proteus mirabilis; settings: in FdUrd+trimethoprim+uridine combination
# P. aeruginosa EN0459 = test: MIC; format: cell-based, Pseudomonas aeruginosa; settings: in FdUrd+trimethoprim+uridine combination
# P. aeruginosa EN0460 = test: MIC; format: cell-based, Pseudomonas aeruginosa; settings: in FdUrd+trimethoprim+uridine combination
# [1] = test system: A. pittii or A. nosocomialis EN0180; test: MIC; format: cell-based, Acinetobacter pittii or nosocomialis; settings: in FdUrd+trimethoprim+uridine combination
# P. aeruginosa EN0422 = test: MIC; format: cell-based, Pseudomonas aeruginosa; settings: in FdUrd+trimethoprim+uridine combination
# P. aeruginosa EN004 = test: MIC; format: cell-based, Pseudomonas aeruginosa; settings: in FdUrd+trimethoprim+uridine combination
# P. aeruginosa EN005 = test: MIC; format: cell-based, Pseudomonas aeruginosa; settings: in FdUrd+trimethoprim+uridine combination
# A. baumannii EN007 = test: MIC; format: cell-based, Acinetobacter baumannii; settings: in FdUrd+trimethoprim+uridine combination
# S. aureus EN008 = test: MIC; format: cell-based, Staphylococcus aureus; settings: in FdUrd+trimethoprim+uridine combination
# P. aeruginosa EN014 = test: MIC; format: cell-based, Pseudomonas aeruginosa; settings: in FdUrd+trimethoprim+uridine combination
# A. baumannii EN016 = test: MIC; format: cell-based, Acinetobacter baumannii; settings: in FdUrd+trimethoprim+uridine combination
# E. coli EN0134 = test: MIC; format: cell-based; settings: in FdUrd+trimethoprim+uridine combination
# E. coli EN0135 = test: MIC; format: cell-based; settings: in FdUrd+trimethoprim+uridine combination
# E. coli EN0136 = test: MIC; format: cell-based; settings: in FdUrd+trimethoprim+uridine combination
# E. coli EN0138 = test: MIC; format: cell-based; settings: in FdUrd+trimethoprim+uridine combination
# E. coli EN0139 = test: MIC; format: cell-based; settings: in FdUrd+trimethoprim+uridine combination
# E. coli EN0235 = format: cell-based
# K. pneumoniae EN0140 = test: MIC; format: cell-based; settings: in FdUrd+trimethoprim+uridine combination
# K. pneumoniae EN0142 = test: MIC; format: cell-based; settings: in FdUrd+trimethoprim+uridine combination
# K. pneumoniae EN0143 = test: MIC; format: cell-based; settings: in FdUrd+trimethoprim+uridine combination
# K. pneumoniae EN0145 = test: MIC; format: cell-based; settings: in FdUrd+trimethoprim+uridine combination
# K. pneumoniae EN0244 = test: MIC; format: cell-based; settings: in FdUrd+trimethoprim+uridine combination
# K. pneumoniae EN0245 = test: MIC; format: cell-based; settings: in FdUrd+trimethoprim+uridine combination
# K. pneumoniae EN0249 = test: MIC; format: cell-based; settings: in FdUrd+trimethoprim+uridine combination
# K. pneumoniae EN0262 = test: MIC; format: cell-based; settings: in FdUrd+trimethoprim+uridine combination
smiles,measurement,setting,value
"COc1cc(Cc2cnc(N)nc2N)cc(OC)c1OC [Trimethoprim, trimethoprim]",MIC,S. aureus strain no 13,< 32 µg/mL
O=c1[nH]c(=O)n([C@H]2C[C@H](O)[C@@H](CO)O2)cc1F [FdUrd],MIC,S. marescens EN0454,>4 µg/mL
same,MIC,M. luteus EN0455,2 µg/mL
same,MIC,P. mirabilis EN0457,1 µg/mL
same,MIC,P. aeruginosa EN0459,>4 µg/mL
same,MIC,P. aeruginosa EN0460,>4 µg/mL
same,MIC,[1],4 µg/mL
same,MIC,P. aeruginosa EN0422,>4 µg/mL
same,MIC,P. aeruginosa EN004,>4 µg/mL
same,MIC,P. aeruginosa EN005,0.25 µg/mL
same,MIC,A. baumannii EN007,>4 µg/mL
same,MIC,S. aureus EN008,<8 ng/mL
same,MIC,P. aeruginosa EN014,>4 µg/mL
same,MIC,A. baumannii EN016,4 µg/mL
same,MIC,E. coli EN0134,>4 µg/mL
same,MIC,E. coli EN0135,0.25 µg/mL
same,MIC,E. coli EN0136,1 µg/mL
same,MIC,E. coli EN0138,0.25 µg/mL
same,MIC,E. coli EN0139,0.5 µg/mL
same,MIC,E. coli EN0235,0.06 µg/mL
same,MIC,K. pneumoniae EN0140,>4 µg/mL
same,MIC,K. pneumoniae EN0142,0.125 µg/mL
same,MIC,K. pneumoniae EN0143,>4 µg/mL
same,MIC,K. pneumoniae EN0145,>4 µg/mL
same,MIC,K. pneumoniae EN0244,>4 µg/mL
same,MIC,K. pneumoniae EN0245,>4 µg/mL
same,MIC,K. pneumoniae EN0249,>4 µg/mL
same,MIC,K. pneumoniae EN0262,2 µg/mL
